Measurements: PubChem BioAssay (NCI)
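Five compound concentrations were applied to cells in 96-well plates for 48 hours; endpoints were derived by simple linear interpolation of the resulting dose-response curve. GI50: concentration for 50% inhibition of growth. TGI: concentration producing complete growth inhibition.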 Where a SMILES comes first, the peptide text is derived from it. [ ]: non-standard residue; d: D form. The star is where a group is joined. NMeF = CN[CH](Cc1ccccc1)C(=O)O; NMeV = CN[CH](C(=O)O)C(C)C; Boc = CC(C)(C)OC(=O)*; OBn = c1ccc(CO*)cc1

Experiments:
Experiment in all cases: inhibition of tumour cell growth, NCI panel, 48 h
ACHN renal = system: ACHN renal
NCI-H522 lung = system: NCI-H522 lung
HOP-62 NSCLC = system: HOP-62 NSCLC
NCI-H226 lung = system: NCI-H226 lung
SN12C renal = system: SN12C renal
COLO 205 colon = system: COLO 205 colon
OVCAR-5 ovarian = system: OVCAR-5 ovarian
HOP-92 NSCLC = system: HOP-92 NSCLC
SNB-19 CNS = system: SNB-19 CNS
SR leukemia = system: SR leukemia

| SMILES | TGI (ACHN renal) [µM] | TGI (NCI-H522 lung) [µM] | TGI (HOP-62 NSCLC) [µM] | TGI (NCI-H226 lung) [µM] | TGI (SN12C renal) [µM] | TGI (COLO 205 colon) [µM] | TGI (OVCAR-5 ovarian) [µM] | TGI (HOP-92 NSCLC) [µM] | TGI (SNB-19 CNS) [µM] | TGI (SR leukemia) [µM] | GI50 (SR leukemia) [µM] | GI50 (ACHN renal) [µM] | GI50 (HOP-62 NSCLC) [µM] | GI50 (SN12C renal) [µM] | GI50 (HOP-92 NSCLC) [µM] |
| --- | --- | --- | --- | --- | --- | --- | --- | --- | --- | --- | --- | --- | --- | --- | --- |
| CCOC(=O)/C=C(/C(=O)OCC)n1c(=O)c(C)cn(C2CC(N=[N+]=[N-])C(CO)O2)c1=O (centres undefined) | > 100 | > 100 | > 100 | > 100 | > 100 | 30.1 | > 100 | 76.6 | > 100 |  |  |  |  |  |  |
| O=C(NN=C1CCCCC1)Nc1ccccc1Cl | > 100 | > 100 |  | > 100 | > 100 | > 100 | > 100 | 94.3 | > 100 | > 100 |  |  |  |  |  |
| C=C1c2nc3ccccc3n2C=C(c2ccc(Cl)cc2)N1c1ccccc1 | 24.8 | 18.5 |  | 3.72 | > 100 | > 100 | > 100 | > 100 | 19.6 | > 100 |  |  |  |  |  |
| CC(C)C(NC(=O)OC(C)(C)C)C(=O)N(C)C(Cc1ccccc1)C(=O)N(C)C(C(=O)N(C)C(C(=O)OCc1ccccc1)C(C)C)C(C)C (centres undefined) (Boc-V[NMeF][NMeV][NMeV]-OBn; configuration not given here) | > 100 | > 100 | > 100 | > 100 | > 100 | > 100 |  |  | > 100 | > 100 |  |  |  |  |  |
| O=C1c2ccccc2C2(c3ccc(Cl)cc3)NCc3ccccc3CN12 (centres undefined) | 51.6 |  | 30.5 |  | > 100 | 28.3 | 58.1 | 56 | 51.6 | > 100 |  |  |  |  |  |
| O=C(Nc1ccc2ccccc2c1)Nn1cnnc1 | > 100 | > 100 | > 100 | > 100 |  | > 100 | > 100 | > 100 | > 100 | > 100 |  |  |  |  |  |
| O=C(c1ccc(Cl)cc1)N1N=C(c2ccc(Cl)cc2)CC1(O)c1cc(F)c(Cl)cc1Cl (centres undefined) | 62.2 | > 100 | 76.9 | > 100 | 73.4 | 48.8 | > 100 | 51.3 | > 100 |  |  |  |  |  |  |
| O=C1C[C@H](c2ccccc2)C2(C(=O)c3ccccc3C2=O)[C@@H](c2ccccc2)C1 |  | > 100 | > 100 | 69.1 | > 100 | 53.6 | > 100 | 90.9 | > 100 | > 100 |  |  |  |  |  |
| N#CSCC1COc2ccccc2O1 (centres undefined) | > 10 | 7.05 | > 10 | > 10 | > 10 | > 10 | > 10 |  | > 10 | > 10 |  |  |  |  |  |
| O=C1C=CC2(O[C@@H](Cc3ccccc3)[C@H](Cc3ccccc3)O2)C(SC(=O)c2ccccc2)C1 (some centres undefined) | 2.43 |  | 2.68 | 3.2 | 3.97 | 3.14 | 1.74 | 3.05 | 7.28 | 0.807 |  |  |  |  |  |
| CC(NC(=O)C(C)C(=O)NCc1ccc(C(F)(F)F)cc1)C(N)=O (centres undefined) | > 100 | > 100 |  | > 100 | > 100 | > 100 | > 100 | > 100 | > 100 | > 100 |  |  |  |  |  |
| Cc1cccc2c(N)c3cccc(C(=O)NCC[N+](C)(C)Cc4sc(N5CCOCC5)nc4[N+](=O)[O-])c3nc12 | 2.28 | 4.54 | 7.77 | 17.4 | > 100 | > 100 | 16.4 | > 100 | > 100 |  |  |  |  |  |  |
| Cc1nnc(N)nc1/C=C\c1cccs1 | 33.1 | 17.6 | 38.5 | 49.4 |  | > 100 | 68.3 | 97.8 | > 100 | > 100 |  |  |  |  |  |
| C/C=C/C=C/C1=NN(c2cccc(S(=O)(=O)O)c2)C2(C1)SCC(=O)N2c1nc2ccccc2s1 (centres undefined) | > 100 | > 100 |  | > 100 | > 100 | > 100 | > 100 | > 100 | > 100 | 87.6 |  |  |  |  |  |
| CN(C)c1nc(N(C)C)nc(N(C)CN(C)c2nc(N(C)C)nc(N(C)C)n2)n1 | > 100 | > 100 | > 100 |  | > 100 | > 100 | > 100 | > 100 | > 100 | > 100 |  |  |  |  |  |
| COc1ccc(C2C(C(=O)O)=C(COC(C)=O)Oc3cc4c(cc32)OCO4)cc1 (centres undefined) | > 100 |  | > 100 |  | > 100 | > 100 |  | > 100 | > 100 |  |  |  |  |  |  |
| C1OCN2c3nonc3N3COCN4c5nonc5N1C2C43 (centres undefined) | > 100 | > 100 |  | > 100 | > 100 | > 100 | > 100 | > 100 | > 100 | > 100 |  |  |  |  |  |
| CC1(C)Oc2ccc(Cl)cc2C12CC2 | 30.1 |  | 37.7 | 32.2 | 33.6 | 32.9 | 34.2 |  | 31.5 | 36.4 |  |  |  |  |  |
| CC[C@@]1(O)C(=O)OCc2c1cc1n(c2=O)Cc2c-1nc1ccccc1c2/C=N\NC(=O)C(N)CS (some centres undefined) |  | 25.9 |  | 34.1 | > 22.8 | > 100 | > 100 | > 57.1 | > 31.6 | 1.04 |  |  |  |  |  |
| NCCCCNCCCN | > 100 | > 100 | > 100 | > 100 |  | > 100 | > 100 | > 100 | > 100 | > 100 |  |  |  |  |  |
| O=C(/C=C/c1cccs1)c1ccsc1 | 42.6 |  | > 100 | 48.5 | 52.6 | 38 | > 100 |  | 50.8 | 38.5 |  |  |  |  |  |
| NCCCn1c2c(c3ccc([N+](=O)[O-])cc3c1=O)C(=O)c1cc3c(cc1-2)OCO3 |  |  | > 100 |  | 0.385 |  |  | 11.1 |  | > 100 | 0.0225 | < 0.01 | 1.43 | < 0.01 | 2.6 |
| O=[N+]([O-])c1cccc2nc3ccccc3c(NCCC[N+]3([O-])CCCCC3)c12 | 47.5 | 0.345 | 3.55 | 1.54 | 1.55 | 0.317 | 2.36 | 0.746 | 9.18 |  |  |  |  |  |  |
